Measurements from patent US8148424B2, “Tocopherols, tocotrienols, other chroman and side chain derivatives and uses thereof” (Research Development Foundation, priority 1998, dated 2012).
In brackets after ≈: the same amount, converted by molar mass.

Assays:
LnCaP = assay: Bioassay for apoptosis (apoptotic EC50); format: cell-based, human; conditions: Homo sapiens, unit inferred
Description: (§1) Cells were cultured at 1.5×10^5 cells/well in 12 well plates. Cells were allowed to adhere overnight, then incubated with novel test compounds at 0.01, 0.1, 1, 5, 10 & 20 μg/mL for 1, 2 and 3 days. After treatment, cells (floating+trypsin released adherent cells) were pelleted, washed and stained with 2 μg/ml DAPI (4′,6-diamidine-2′-phenylindole dihydrochloride) in 100% methanol for 15 minutes at 37° C. and/or 3′-OH ends resulting from DNA fragmentation were detected with the TUNEL (terminal deoxynucleotidyl transferase-mediated dUTP-X 3′ nick end-labeling) technique, and then viewed using a Zeiss ICM 405 microscope. Cells whose nucleus contained clearly condensed or fragmented chromatin or stained for fragmented DNA in the TUNEL assay were scored as apoptotic. Data are presented as percent cells undergoing apoptosis.

Jurkat = assay: Bioassay for apoptosis (apoptotic EC50); format: cell-based, human; conditions: Homo sapiens, unit inferred
Description: as §1

RL-95-2 = assay: Bioassay for apoptosis (apoptotic EC50); format: cell-based, human; conditions: Homo sapiens, RL95-2, RL-95-2; unit inferred
Description: as §1

DU-145 = assay: Bioassay for apoptosis (apoptotic EC50); format: cell-based, human; conditions: Homo sapiens, unit inferred
Description: as §1

PC-3 = assay: Bioassay for apoptosis (apoptotic EC50); format: cell-based, human; conditions: Homo sapiens, PC-3, PC-3; unit inferred
Description: as §1

DLD-1 = assay: Bioassay for apoptosis (apoptotic EC50); format: cell-based, human; conditions: Homo sapiens, unit inferred
Description: as §1

HT-29 = assay: Bioassay for apoptosis (apoptotic EC50); format: cell-based, human; conditions: Homo sapiens, unit inferred
Description: as §1

MCF-7 = assay: Bioassay for apoptosis (apoptotic EC50); format: cell-based, human; conditions: Homo sapiens, MCF7, MCF-7; unit inferred
Description: as §1

C-170 = assay: Bioassay for apoptosis (apoptotic EC50); format: cell-based, human; conditions: Homo sapiens, C170, C-170; unit inferred
Description: as §1

HL-60 = assay: Bioassay for apoptosis (apoptotic EC50); format: cell-based, human; conditions: Homo sapiens, HL-60, HL-60; unit inferred
Description: as §1

A-549 = assay: Bioassay for apoptosis (apoptotic EC50); format: cell-based, human; conditions: Homo sapiens, A549, unit inferred
Description: as §1

MDA-MB-435 = assay: Bioassay for apoptosis (apoptotic EC50); format: cell-based, human; conditions: Homo sapiens, MDA-MB-435, MDA-MB-435; unit inferred; read-out: apoptotic EC50
Description: as §1

[1] = test system: human cancer cells from a wide variety of cell lineages; assay: Apoptosis induction in a battery of tumor cells; format: cell-based; conditions: breast, prostate, leukemia/lymphoid, cervical, ovarian, endometrial, colon, lung cell lines
Description: as §1

MCF-10A = assay: Bioassay for apoptosis (apoptotic EC50); format: cell-based; conditions: Homo sapiens, unit inferred
Description: as §1

T47D = assay: Bioassay for apoptosis (apoptotic EC50); format: cell-based; conditions: Homo sapiens, unit inferred
Description: as §1

ME-180 = assay: Bioassay for apoptosis (apoptotic EC50); format: cell-based, human; conditions: Homo sapiens, ME-180, ME-180; unit inferred
Description: as §1

MDA-MB-231 = assay: Bioassay for apoptosis (apoptotic EC50); format: cell-based, human; conditions: Homo sapiens, MDA-MB-231, MDA-MB-231; unit inferred
Description: as §1

HMEC = assay: Bioassay for apoptosis (apoptotic EC50); format: cell-based; conditions: Homo sapiens, unit inferred
Description: as §1

Row | EC50 (LnCaP) | EC50 (Jurkat) | EC50 (RL-95-2) | EC50 (DU-145) | EC50 (PC-3) | EC50 (DLD-1) | EC50 (HT-29) | EC50 (MCF-7) | EC50 (C-170) | EC50 (HL-60) | EC50 (A-549) | EC50 (MDA-MB-435) | EC50 (T47D) | EC50 (ME-180) | EC50 (MDA-MB-231) | EC50 (HMEC) | Structure (SMILES) | growth inhibitory (apoptotic inducing) properties specific for human cancer cells [1] | EC50 (MCF-10A)
1 | 5 to 10 µg/mL (≈ 10.5 to 21.1 µM) |  | 1 to 5 µg/mL (≈ 2.11 to 10.5 µM) |  | 5 to 10 µg/mL (≈ 10.5 to 21.1 µM) |  |  | 10 to 20 µg/mL (≈ 21.1 to 42.1 µM) | 10 to 20 µg/mL (≈ 21.1 to 42.1 µM) | 10 to 20 µg/mL (≈ 21.1 to 42.1 µM) |  | 5 to 10 µg/mL (≈ 10.5 to 21.1 µM) |  | 5 to 10 µg/mL (≈ 10.5 to 21.1 µM) | 5 to 10 µg/mL (≈ 10.5 to 21.1 µM) | > 20 µg/mL | Cc1c(OCC(=O)O)cc2c(c1C)O[C@](C)(CCC[C@H](C)CCC[C@H](C)CCCC(C)C)CC2 [Compound 8, 2,7,8-trimethyl-(2R-(4R,8R,12-trimethyltridecyl)chroman-6-yloxy)acetic acid] | effective | > 20 µg/mL
2 |  |  |  | > 20 µg/mL | > 20 µg/mL |  | > 20 µg/mL | > 20 µg/mL |  |  |  | > 20 µg/mL |  |  |  |  | CCCCCCC[C@]1(C)CCc2c(C)c(OCC(=O)O)c(C)c(C)c2O1 [Compound 23, 2,5,7,8-tetramethyl-(2R-(heptyl)chroman-6-yloxy)acetic acid] |  | > 20 µg/mL
3 | > 20 µg/mL |  | > 20 µg/mL |  | > 20 µg/mL |  |  | > 20 µg/mL | > 20 µg/mL | > 20 µg/mL |  | > 20 µg/mL |  | > 20 µg/mL | > 20 µg/mL | > 20 µg/mL | COC(=O)COc1c(C)c(C)c2c(c1C)CC[C@@](C)(CCC[C@H](C)CCC[C@H](C)CCCC(C)C)O2 [Compound 11, Methyl 2,5,7,8-tetramethyl-(2R-(4R,8R,12-trimethyltridecyl)chroman-6-yloxy)acetate] |  | > 20 µg/mL
4 | 2.5 to 5 µg/mL (≈ 5.27 to 10.5 µM) |  | 5 to 10 µg/mL (≈ 10.5 to 21.1 µM) |  | 5 to 10 µg/mL (≈ 10.5 to 21.1 µM) |  |  | 10 to 20 µg/mL (≈ 21.1 to 42.1 µM) | 10 to 20 µg/mL (≈ 21.1 to 42.1 µM) | 5 to 10 µg/mL (≈ 10.5 to 21.1 µM) |  | 5 to 10 µg/mL (≈ 10.5 to 21.1 µM) | > 20 µg/mL | 5 to 10 µg/mL (≈ 10.5 to 21.1 µM) | 5 to 10 µg/mL (≈ 10.5 to 21.1 µM) | > 20 µg/mL | Cc1cc(OCC(=O)O)c(C)c2c1O[C@](C)(CCC[C@H](C)CCC[C@H](C)CCCC(C)C)CC2 [Compound 7, 2,5,8-trimethyl-(2R-(4R,8R,12-trimethyltridecyl)chroman-6-yloxy) acetic acid] | effective | > 20 µg/mL
5 | 5 to 10 µg/mL (≈ 10.3 to 20.5 µM) | 10 to 20 µg/mL (≈ 20.5 to 41.1 µM) |  | 5 to 10 µg/mL (≈ 10.3 to 20.5 µM) | 5 to 10 µg/mL (≈ 10.3 to 20.5 µM) |  |  | 5 to 10 µg/mL (≈ 10.3 to 20.5 µM) |  | 10 µg/mL (≈ 20.5 µM) | 20 to 30 µg/mL (≈ 41.1 to 61.6 µM) | 10 to 20 µg/mL (≈ 20.5 to 41.1 µM) | 5 to 10 µg/mL (≈ 10.3 to 20.5 µM) | 1 to 5 µg/mL (≈ 2.05 to 10.3 µM) |  |  | Cc1c(C)c2c(c(C)c1OCC(=O)O)C=C[C@@](C)(CCC[C@H](C)CCC[C@H](C)CCCC(C)C)O2 [Compound 20, 2,5,7,8-tetramethyl-(2R-(4R,8R,12-trimethyltridecyl)chroman-3-ene-6-yloxy)acetic acid] | effective | > 20 µg/mL

Further lines, the molecule ahead of its results:

Row | Structure (SMILES) | EC50 (LnCaP) | EC50 (Jurkat) | EC50 (RL-95-2) | EC50 (DU-145) | EC50 (PC-3) | EC50 (DLD-1) | EC50 (HT-29) | EC50 (MCF-7) | EC50 (C-170) | EC50 (HL-60) | EC50 (A-549) | EC50 (MDA-MB-435) | EC50 (T47D) | EC50 (ME-180) | EC50 (MDA-MB-231) | EC50 (HMEC) | growth inhibitory (apoptotic inducing) properties specific for human cancer cells [1] | EC50 (MCF-10A)
6 | CC(C)=CCC/C(C)=C\C=C/[C@]1(C)CCc2c(C)c(OCC(=O)O)c(C)c(C)c2O1 [Compound 26] | 10 to 20 µg/mL (≈ 24.2 to 48.5 µM) | 20 to 30 µg/mL (≈ 48.5 to 72.7 µM) | 20 to 30 µg/mL (≈ 48.5 to 72.7 µM) | > 20 µg/mL | > 20 µg/mL | 20 to 40 µg/mL (≈ 48.5 to 97 µM) | > 20 µg/mL | > 20 µg/mL | 20 to 30 µg/mL (≈ 48.5 to 72.7 µM) | > 20 µg/mL | > 20 µg/mL | 20 to 40 µg/mL (≈ 48.5 to 97 µM) | > 20 µg/mL |  |  |  | effective | > 20 µg/mL
7 | Cc1c(C)c2c(c(C)c1OCC(=O)O)CCC(C)(C)O2 [Compound 14, 2-(2,5,7,8-pentamethylchroman-6-yloxy)acetic acid] | > 20 µg/mL |  | > 20 µg/mL |  | > 20 µg/mL |  |  | > 20 µg/mL | > 20 µg/mL | > 20 µg/mL |  | > 20 µg/mL |  | > 20 µg/mL | > 20 µg/mL | > 20 µg/mL |  | > 20 µg/mL
8 | CCCCCCCCCCCCCCCCC[C@]1(C)CCc2c(C)c(OCC(=O)O)c(C)c(C)c2O1 [Compound 25, 2,5,7,8-tetramethyl-(2R-(heptadecyl)chroman-6-yloxy)acetic acid] | > 20 µg/mL |  | > 20 µg/mL | 20 to 30 µg/mL (≈ 39.8 to 59.7 µM) | 20 to 30 µg/mL (≈ 39.8 to 59.7 µM) | > 20 µg/mL | > 20 µg/mL | > 20 µg/mL | > 20 µg/mL |  |  | > 20 µg/mL |  | > 20 µg/mL |  |  | effective | > 20 µg/mL
